{"source": "patent US12016837B2", "about": "“Halogenated esters of cyclopropanated unsaturated fatty acids for use in the treatment of neurodegenerative diseases” (Synaptogenix, Inc., priority 2013, dated 2024)", "key": {"PKC-ε [1]": {"target": "T1, PKC-ε (Homo sapiens, UniProt Q02156)", "T1 sequence (Q02156 1-737)": "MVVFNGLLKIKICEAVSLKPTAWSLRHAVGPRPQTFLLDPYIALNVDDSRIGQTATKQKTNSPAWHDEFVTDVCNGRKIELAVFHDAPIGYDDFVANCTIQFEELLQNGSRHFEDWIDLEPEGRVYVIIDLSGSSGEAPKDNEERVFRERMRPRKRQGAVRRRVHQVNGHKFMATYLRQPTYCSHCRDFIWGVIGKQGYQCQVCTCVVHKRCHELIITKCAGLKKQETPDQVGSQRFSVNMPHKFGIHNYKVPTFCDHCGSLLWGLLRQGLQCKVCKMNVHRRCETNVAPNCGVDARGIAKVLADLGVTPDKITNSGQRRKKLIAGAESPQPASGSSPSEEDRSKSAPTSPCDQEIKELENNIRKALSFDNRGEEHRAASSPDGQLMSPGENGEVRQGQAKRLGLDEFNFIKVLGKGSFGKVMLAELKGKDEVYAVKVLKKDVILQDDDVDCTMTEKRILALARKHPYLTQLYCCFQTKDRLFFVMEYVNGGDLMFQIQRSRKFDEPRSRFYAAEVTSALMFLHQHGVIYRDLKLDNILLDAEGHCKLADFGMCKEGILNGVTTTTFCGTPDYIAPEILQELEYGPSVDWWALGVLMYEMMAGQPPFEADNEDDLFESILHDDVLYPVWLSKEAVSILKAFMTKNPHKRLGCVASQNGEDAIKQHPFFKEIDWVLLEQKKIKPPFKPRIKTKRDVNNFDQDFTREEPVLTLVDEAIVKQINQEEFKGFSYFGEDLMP", "experiment": "PKC-ε activation: incorporation of 32P-inorganic phosphate from gamma-32P-ATP", "type": "biochemical", "protocol": "Example 4: PKC-ε activation by DCPLA-EtF3 versus DCPLA methyl ester. […] Sen A, Alkon D L, Nelson T J, J. Biol. Chem. 287(19): 15947-58 (2012). PKC-ε activation by DCPLA-EtF3 was measured by measuring the incorporation of 32P-inorganic phosphate from gamma-32P-ATP by recombinant human PKC-ε.\nExample 5: PKC-ε activation by 1,1,1-trifluoropropan-2-yl DCPLA. PKC-ε activation by 1,1,1-trifluoropropan-2-yl DCPLA was measured by measuring the incorporation of 32P-inorganic phosphate from gamma-32P-ATP by recombinant human PKC-ε. […] Activation started at 0.01 nM and was biphasic, consistent with a low and a high affinity binding site for DCPLA."}, "PKC-ε [2]": {"target": "T1, PKC-ε", "settings": "earlier research, cited from earlier work"}}, "data": [{"smiles": "CCCCCC1CC1CC1CC1CCCCCCCC(=O)OC(C)C(F)(F)F", "note": "(stereo not drawn) [1,1,1-trifluoropropan-2-yl DCPLA]", "values": [{"measurement": "concentration at which PKC-ε activation started", "setting": "PKC-ε [1]; FIG. 2", "result": 10, "unit": "pM"}, {"measurement": "potency compared to unmodified DCPLA", "setting": "PKC-ε [1]; FIG. 2, comparison in words", "result": "superior potency"}, {"measurement": "shape of PKC-ε activation response", "setting": "PKC-ε [1]; FIG. 2, consistent with a low and a high affinity binding site", "result": "biphasic"}]}, {"smiles": "CCCCCC1CC1CC1CC1CCCCCCCC(=O)OC", "note": "(stereo not drawn) [DCPLA methyl ester]", "values": [{"measurement": "concentration of maximum PKC-ε activation", "setting": "PKC-ε [2]", "result": 0.1, "unit": "µM"}, {"measurement": "potency as PKC-ε activator relative to unesterified DCPLA", "setting": "PKC-ε [2]; more potent than unesterified DCPLA", "result": "approximately 100 times"}]}, {"smiles": "CCCCCC1CC1CC1CC1CCCCCCCC(=O)OCC(F)(F)F", "note": "(stereo not drawn) [DCPLA-EtF3, DCPLA-trifluoroethyl ester]", "values": [{"measurement": "concentration of peak PKC-ε activation", "setting": "PKC-ε [1]; FIG. 1", "result": "0.1 to 1", "unit": "nM"}, {"measurement": "extent of PKC-ε activation compared with DCPLA methyl ester", "setting": "PKC-ε [1]; FIG. 1, comparison in words", "result": "approximately the same extent of activation as DCPLA methyl ester"}, {"measurement": "potency as PKC-ε activator relative to DCPLA methyl ester", "setting": "PKC-ε [1]; FIG. 1, more potent than DCPLA methyl ester", "result": "approximately 1000 times"}, {"measurement": "potency compared with bryostatin-1", "setting": "PKC-ε [1]; comparison in words", "result": "approximately equal to that of bryostatin-1"}]}]}
